The text below walks through data of patent US20240382510A1, “NEW COMBINATION DRUG FOR TREATING CORONAVIRUS INFECTIONS, PHARMACEUTICAL COMPOSITION AND USE THEREOF” (priority 2021, published 2024).

Structures are written as SMILES. Where two headings read alike, the source gives them in different places.

For data set [1] the following is noted: literature (Beerahee 1999; Alinia prescribing information); cited from earlier work.
Data set [2] concerns SARS-CoV-2 (hCoV-19/China/CAS-B001/2020). Put plainly: Synergistic anti-SARS-CoV-2 activity (Example 4), CPE in Vero-E6 cells. To be noted: Severe acute respiratory syndrome coronavirus 2, Vero C1008; wild strain hCoV-19/China/CAS-B001/2020, Vero-E6, CPE after 72 hours. Type of data set: cell-based.
For data set [3] the following is noted: rats.
Experimental: Among them, group 4 was converted according to the clinical administration of 3 tablets, and the remaining experimental groups were converted according to the clinical administration of 4 tablets.
A single dose was administered to healthy SD rats, and blood was taken according to the blood collection plan. After sample processing, analysis, and data processing, the plasma concentration-time curves of each group were drawn respectively. The pharmacokinetic parameters of each group of medicines in rats was calculate by WinNonlin 6.1 software.
The next data set in a line: in vivo. The settings on record: plasma. Type of data set: in vitro ADME. From the text: In addition, due to the high plasma protein binding rate of atovaquone and nitazoxanide, both about 99% (refer to Beerahee M Clinical pharmacology of atovaquone and proguanil hydrochloride. [J]. Journal of Travel Medicine, 1999, 6 suppl 1:S13-7.; Alinia™ PRESCRIBING INFORMATION-FDA.). The present application also studied and compared the in vivo plasma protein binding rate of atovaquone and nitazoxanide combined administration and separate administration. […] Compared with alone administration, combined administration will not affect the distribution and elimination of the two drugs in vivo, and competition for plasma protein binding site by one drug will not result in an increase in the free form of another drug.

The conditions of data set [4]: literature values; cited from earlier work.
The subject of the next data set is SARS-CoV-2. The settings on record: anti-SARS-CoV-2, literature values; cited from earlier work.
[5] abbreviates: atovaquone combined with nitazoxanide, read-out: average plasma protein binding rate, combined administration group (converted).
The mark [6] stands for this setting: separate administration, read-out: average plasma protein binding rate, separate administration group (converted).

As to `O=C1C(O)=C([C@H]2CC[C@H](c3ccc(Cl)cc3)CC2)C(=O)c2ccccc21` [ATQ, 2-(trans-4-(4-chlorophenyl)cyclohexyl)-3-hydroxy-1,4-naphthalenedione], the “plasma protein binding rate” value in data set [1] is “about 99%”. Further, in data set [2], the EC50 was found to be 2.04 µM. For the same compound, in data set [3] (single dose), the “exposure level (AUC0-24h) administered alone compared with combination at the same dose” value is on record as “similar”; the “plasma concentration trend at 16-24 hours, administered alone” value was “downward trend”; the “plasma concentration trend at 16-24 hours, combined administration” value was “flat or rising trend”. Also, the fraction unbound in the data set “in vivo” (setting [5]) is 0.0014. For the same compound, the fraction unbound in “in vivo” (setting [6]) was 0.0016.

Consider `CC(C)C(=O)OC[C@H]1O[C@@H](n2ccc(NO)nc2=O)[C@H](O)[C@@H]1O` [Molnupiravir], for which, in data set [4], the Plasma concentration is 2.09 µM. Besides, the EC50 in the data set on SARS-CoV-2 is 0.32 to 2.03 µM.

With `CC(=O)Oc1ccccc1C(=O)Nc1ncc([N+](=O)[O-])s1` [NTZ, o-[N-(5-nitro-1,3-thiazol-2-yl)carbamoyl]phenol acetate], in data set [1], the “plasma protein binding rate” value is on record as “about 99%”. In data set [2], the concentration giving a half-maximal response (EC50) is 4.9 µM. In addition, the “plasma concentration administered alone vs in combination at the same dose” value in data set [3] (single dose 46.6 mg/kg, group 1 vs group 5) was “no obvious difference”. Further, the fraction unbound in the data set “in vivo” (setting [5]) was 0.0016; in “in vivo” (setting [6]) it was 0.0105.

`NC(=O)c1ncn([C@@H]2O[C@H](CO)[C@@H](O)[C@H]2O)n1` [RBV, 1-[(2R,3R,4S,5R)-3,4-dihydroxy-5-(hydroxymethyl)Oxolane-2-yl]-1H-1,2,4-triazole-3-carboxamide]: the “plasma concentration administered alone vs in combination, within 0.5-4 hours after administration” value in data set [3] (13.9 mg/kg, group 3 vs group 5 and group 4) is reported as “greater”. The “exposure level (AUC0-24h) administered alone compared with combination at the same dose” value in data set [3] (single dose) was “slightly greater”.
